{"source": "patent US5134137A", "about": "“Cephalosporin antibiotics” (The Upjohn Company, priority 1990, dated 1992)", "key": {"Enterococcus faecium": {"tested_on": "Enterococcus faecium", "assay": "MIC, agar dilution, Enterococcus faecium", "type": "cell-based", "conditions": "Enterococcus faecium; strain UC241; read-out: MIC", "procedure": "(§1) Stock solutions of each test antibiotic compound were prepared to have a concentration of 2 mg. of the test compound per milliliter in sterile water of 0.1M ammonium acetate solution. The amount of each compound used was adjusted for base compound activity as calculated from the purity data for the selected batch of compound.\n(§2) The dilution procedure described by Washington and Sutter [Manual of Clinical Microbiology, 3rd, Edit. (Lennett, E. H. et al, Eds.), pp. 453-458 (1980), American Society for Microbiology, Washington, D.C.] was modified so that serial concentrations of 128 to 0.0625 microgram/ml. in sterile water was obtained. Then 1.5 ml. aliquots of these test antibiotic dilution mixtures are added to 13.5 molten (50° C.) Mueller-Hinton agar. Each resulting mixture is poured into 15×100 mm, sterile Petri plates and allowed to dry at room temperature overnight.\n(§3) Test bacterial cultures are maintained at -70° C. on glass beads. [See R. J. Yancey, Jr. et al, Amer. Jr. of Vet. Research, 48, No. 7, pp. 1050-1053, (1987)]. At least one bacteria-laden bead per culture is dropped into one ml. of brain heart infusion (BHI) broth for overnight culture at 37° C. in 5% V/V carbon dioxide in air atmosphere.\n(§4) On the data of assay, 2 to 8 drops of the bacterial broth cultures are transferred to fresh BHI broth (1 ml.) and the mixture is incubated for 4 to 6 hours at 37° C. in a 5% V/V carbon dioxide in air atmosphere. The resulting cultures are then diluted to match a 0.5 MacFarland standard and further diluted 1:20 V/V with sterile saline solution.\n(§5) A 0.001 ml. drop of the resulting mixture, containing approximately 10^3 to 10^4 colony forming units (CFU) of each test bacteria organism, is dispensed onto the surface of the test antibiotic compound test plates with a Steer's type replicator. The resulting innoculated plates are incubated 16 to 18 hours at 37° C. with a carbon dioxide atmosphere.\nas §1, with “solution” for “solutions”\nas §2, with “mm.” for “mm,”\nas §2, with “for Microbiology.” for “for Microbiology,”, “15×100 mm.” for “15×100 mm,”\nas §3, with “culture” for “cultures”\n(§6) On the day of assay, 2 to 8 drops of the bacterial broth cultures are transferred to fresh BHI broth (1 ml.) and the mixture is incubated for 4 to 6 hours at 37° C. in a 5% V/V carbon dioxide in air atmosphere. […]"}, "Salmonella typhimurium": {"tested_on": "Salmonella typhimurium", "assay": "MIC, agar dilution, Salmonella typhimurium", "type": "cell-based", "conditions": "Salmonella enterica, read-out: MIC", "procedure": "as §1, with “solution” for “solutions”\nas §2, §3, §4, §5, §1\nas §2, with “mm.” for “mm,”\nas §2, with “for Microbiology.” for “for Microbiology,”, “15×100 mm.” for “15×100 mm,”\nas §3, with “culture” for “cultures”\nas §6"}, "[1]": {"tested_on": "Bordetella bronchiseptica", "assay": "MIC, agar dilution, Bordetella bronchiseptica", "type": "cell-based", "conditions": "Bordetella bronchiseptica; strain UC6313; read-out: MIC", "procedure": "as §1, with “solution” for “solutions”\nas §2, §3, §4, §5, §1\nas §2, with “mm.” for “mm,”\nas §2, with “for Microbiology.” for “for Microbiology,”, “15×100 mm.” for “15×100 mm,”\nas §3, with “culture” for “cultures”\nas §6"}, "Streptococcus suis": {"tested_on": "Streptococcus suis", "assay": "MIC, agar dilution, Streptococcus suis", "type": "cell-based", "conditions": "Streptococcus suis; strain 650-2; read-out: MIC", "procedure": "as §1, with “solution” for “solutions”\nas §2, §3, §4, §5, §1\nas §2, with “mm.” for “mm,”\nas §2, with “for Microbiology.” for “for Microbiology,”, “15×100 mm.” for “15×100 mm,”\nas §3, with “culture” for “cultures”\nas §6"}, "Streptococcus agalactiae": {"tested_on": "Streptococcus agalactiae", "assay": "MIC, agar dilution, Streptococcus agalactiae", "type": "cell-based", "conditions": "Streptococcus agalactiae, read-out: MIC", "procedure": "as §1, with “solution” for “solutions”\nas §2, §3, §4, §5, §1\nas §2, with “mm.” for “mm,”\nas §2, with “for Microbiology.” for “for Microbiology,”, “15×100 mm.” for “15×100 mm,”\nas §3, with “culture” for “cultures”\nas §6"}, "[2]": {"tested_on": "Streptococcus dysgalactiae", "assay": "MIC, agar dilution, Streptococcus dysgalactiae", "type": "cell-based", "conditions": "Streptococcus dysgalactiae; strain UC251; read-out: MIC", "procedure": "as §1, with “solution” for “solutions”\nas §2, §3, §4, §5, §1\nas §2, with “mm.” for “mm,”\nas §2, with “for Microbiology.” for “for Microbiology,”, “15×100 mm.” for “15×100 mm,”\nas §3, with “culture” for “cultures”\nas §6"}, "Pasteurella multocida": {"tested_on": "Pasteurella multocida", "assay": "MIC, agar dilution, Pasteurella multocida", "type": "cell-based", "conditions": "Pasteurella multocida; strain UC9581; read-out: MIC", "procedure": "as §1, with “solution” for “solutions”\nas §2, §3, §4, §5, §1\nas §2, with “mm.” for “mm,”\nas §2, with “for Microbiology.” for “for Microbiology,”, “15×100 mm.” for “15×100 mm,”\nas §3, with “culture” for “cultures”\nas §6"}, "Staphylococcus aureus": {"tested_on": "Staphylococcus aureus", "assay": "MIC, agar dilution, Staphylococcus aureus", "type": "cell-based", "conditions": "Staphylococcus aureus, read-out: MIC", "procedure": "as §1, with “solution” for “solutions”\nas §2, §3, §4, §5, §1\nas §2, with “mm.” for “mm,”\nas §2, with “for Microbiology.” for “for Microbiology,”, “15×100 mm.” for “15×100 mm,”\nas §3, with “culture” for “cultures”\nas §6"}, "Micrococcus luteus": {"tested_on": "Micrococcus luteus", "assay": "MIC, agar dilution, Micrococcus luteus", "type": "cell-based", "conditions": "Micrococcus luteus; strain UC130; read-out: MIC", "procedure": "as §1, with “solution” for “solutions”\nas §2, §3, §4, §5, §1\nas §2, with “mm.” for “mm,”\nas §2, with “for Microbiology.” for “for Microbiology,”, “15×100 mm.” for “15×100 mm,”\nas §3, with “culture” for “cultures”\nas §6"}, "Enterococcus faecalis": {"tested_on": "Enterococcus faecalis", "assay": "MIC, agar dilution, Enterococcus faecalis", "type": "cell-based", "conditions": "Enterococcus faecalis; strain UC694; read-out: MIC", "procedure": "as §1, §2, §3, §4, §5\nas §1, with “solution” for “solutions”\nas §2, with “mm.” for “mm,”\nas §2, with “for Microbiology.” for “for Microbiology,”, “15×100 mm.” for “15×100 mm,”\nas §3, with “culture” for “cultures”\nas §6"}, "Corynebacterium pyogenes": {"tested_on": "Corynebacterium pyogenes", "assay": "MIC, agar dilution, Corynebacterium pyogenes", "type": "cell-based", "conditions": "strain 213-2; read-out: MIC", "procedure": "as §1, with “solution” for “solutions”\nas §2, §3, §4, §5, §1\nas §2, with “mm.” for “mm,”\nas §2, with “for Microbiology.” for “for Microbiology,”, “15×100 mm.” for “15×100 mm,”\nas §3, with “culture” for “cultures”\nas §6"}, "Escherichia coli": {"tested_on": "Escherichia coli", "assay": "MIC, agar dilution, Escherichia coli", "type": "cell-based", "conditions": "Escherichia coli, read-out: MIC", "procedure": "as §1, with “solution” for “solutions”\nas §2, §3, §4, §5, §1\nas §2, with “mm.” for “mm,”\nas §2, with “for Microbiology.” for “for Microbiology,”, “15×100 mm.” for “15×100 mm,”\nas §3, with “culture” for “cultures”\nas §6"}, "Salmonella choleraesuis": {"tested_on": "Salmonella choleraesuis", "assay": "MIC, agar dilution, Salmonella choleraesuis", "type": "cell-based", "conditions": "Salmonella enterica, read-out: MIC", "procedure": "as §1, with “solution” for “solutions”\nas §2, §3, §4, §5, §1\nas §2, with “mm.” for “mm,”\nas §2, with “for Microbiology.” for “for Microbiology,”, “15×100 mm.” for “15×100 mm,”\nas §3, with “culture” for “cultures”\nas §6"}, "Streptococcus bovis": {"tested_on": "Streptococcus bovis", "assay": "MIC, agar dilution, Streptococcus bovis", "type": "cell-based", "conditions": "Streptococcus equinus; strain UC6281; read-out: MIC", "procedure": "as §1, with “solution” for “solutions”\nas §2, §3, §4, §5, §1\nas §2, with “mm.” for “mm,”\nas §2, with “for Microbiology.” for “for Microbiology,”, “15×100 mm.” for “15×100 mm,”\nas §3, with “culture” for “cultures”\nas §6"}, "Pseudomonas aeruginosa": {"tested_on": "Pseudomonas aeruginosa", "assay": "MIC, agar dilution, Pseudomonas aeruginosa", "type": "cell-based", "conditions": "Pseudomonas aeruginosa, ATCC27853; strain ATCC 27853; read-out: MIC", "procedure": "as §1, with “solution” for “solutions”\nas §2, §3, §4, §5, §1\nas §2, with “mm.” for “mm,”\nas §2, with “for Microbiology.” for “for Microbiology,”, “15×100 mm.” for “15×100 mm,”\nas §3, with “culture” for “cultures”\nas §6"}, "Pasteurella hemolytica": {"tested_on": "Pasteurella hemolytica", "assay": "MIC (minimum inhibitory concentration), agar dilution, Pasteurella hemolytica", "type": "cell-based", "conditions": "Pasteurella, read-out: MIC", "procedure": "as §1, with “solution” for “solutions”\nas §2, §3, §4, §5, §1\nas §2, with “mm.” for “mm,”\nas §2, with “for Microbiology.” for “for Microbiology,”, “15×100 mm.” for “15×100 mm,”\nas §3, with “culture” for “cultures”\nas §6"}, "[3]": {"assay": "Serum half life / duration of antibiotic action", "conditions": "inferred from results against Salmonella typhimurium"}, "Streptococcus uberis": {"tested_on": "Streptococcus uberis", "assay": "MIC, agar dilution, Streptococcus uberis", "type": "cell-based", "conditions": "Streptococcus uberis, read-out: MIC", "procedure": "as §1, with “solution” for “solutions”\nas §2, §3, §4, §5, §1\nas §2, with “mm.” for “mm,”\nas §2, with “for Microbiology.” for “for Microbiology,”, “15×100 mm.” for “15×100 mm,”\nas §3, with “culture” for “cultures”\nas §6"}}, "note": "Read-outs that look alike come from different tables or passages of the source.", "data": [{"smiles": "CO/N=C(\\C(=O)N[C@@H]1C(=O)N2C(C(=O)O)=C(CSCC(N)=O)CS[C@H]12)c1csc(N)n1", "note": "[Example 7, 7-[2-(2-amino-1,3-thiazol-4-yl)-2-(methoxyimino)acetamido]-3-(aminocarbonylmethylthiomethyl)-3-cephem-4-carboxylic acid]", "values": [{"measurement": "MIC", "setting": "Enterococcus faecium", "result": "> 32", "unit": "µg/mL"}, {"measurement": "MIC", "setting": "Salmonella typhimurium; TYPHIMURIUM / UC6162, strain UC6162", "result": 1, "unit": "µg/mL"}, {"measurement": "MIC", "setting": "Salmonella typhimurium; TYPHIMURIUM / UC6164, strain UC6164", "result": 1, "unit": "µg/mL"}, {"measurement": "MIC", "setting": "[1]", "result": "> 32", "unit": "µg/mL"}, {"measurement": "MIC", "setting": "Streptococcus suis", "result": 0.13, "unit": "µg/mL"}, {"measurement": "MIC", "setting": "Streptococcus agalactiae; strain UC3947", "result": "≤ 0.06", "unit": "µg/mL"}, {"measurement": "MIC", "setting": "Streptococcus agalactiae; strain UC6892", "result": "≤ 0.06", "unit": "µg/mL"}, {"measurement": "MIC", "setting": "[2]", "result": "≤ 0.06", "unit": "µg/mL"}, {"measurement": "MIC", "setting": "Pasteurella multocida", "result": "≤ 0.06", "unit": "µg/mL"}, {"measurement": "MIC", "setting": "Staphylococcus aureus; strain UC6093", "result": 4, "unit": "µg/mL"}, {"measurement": "MIC", "setting": "Staphylococcus aureus; strain UC6097", "result": 4, "unit": "µg/mL"}, {"measurement": "MIC", "setting": "Staphylococcus aureus; strain UC9203", "result": 4, "unit": "µg/mL"}, {"measurement": "MIC", "setting": "Micrococcus luteus", "result": 0.25, "unit": "µg/mL"}, {"measurement": "MIC", "setting": "Enterococcus faecalis", "result": "> 32", "unit": "µg/mL"}, {"measurement": "MIC", "setting": "Corynebacterium pyogenes", "result": 16, "unit": "µg/mL"}, {"measurement": "MIC", "setting": "Escherichia coli; strain UC3784", "result": 1, "unit": "µg/mL"}, {"measurement": "MIC", "setting": "Escherichia coli; strain UC6720", "result": 1, "unit": "µg/mL"}, {"measurement": "MIC", "setting": "Escherichia coli; strain UC9670", "result": 1, "unit": "µg/mL"}, {"measurement": "MIC", "setting": "Salmonella choleraesuis; CHOLERAESUIS / UC6073, strain UC6073", "result": 1, "unit": "µg/mL"}, {"measurement": "MIC", "setting": "Salmonella choleraesuis; CHOLERAESUIS / UC6077, strain UC6077", "result": 2, "unit": "µg/mL"}, {"measurement": "MIC", "setting": "Streptococcus bovis", "result": 0.13, "unit": "µg/mL"}, {"measurement": "MIC", "setting": "Pseudomonas aeruginosa", "result": "> 32", "unit": "µg/mL"}, {"measurement": "MIC", "setting": "Pasteurella hemolytica; strain UC6531", "result": "≤ 0.06", "unit": "µg/mL"}, {"measurement": "MIC", "setting": "Pasteurella hemolytica; strain UC6532", "result": "≤ 0.06", "unit": "µg/mL"}, {"measurement": "MIC", "setting": "Pasteurella hemolytica; strain UC9582", "result": "≤ 0.06", "unit": "µg/mL"}, {"measurement": "serum half life", "setting": "[3]", "result": "longer serum half life"}, {"measurement": "MIC", "setting": "Streptococcus uberis; strain UC3946", "result": 0.13, "unit": "µg/mL"}, {"measurement": "MIC", "setting": "Streptococcus uberis; strain UC6159", "result": 32, "unit": "µg/mL"}]}]}
